According to patent US20230013823A1, “INHIBITORS OF HUMAN IMMUNODEFICIENCY VIRUS REPLICATION” (VIV HEALTHCARE UK (No. 5) LIMITED, priority 2019, published 2023):

What was measured:
[1] = Compound cytotoxicity, XTT-based colorimetric assay; assay type: cell-based; details: human; uninfected MT2 cells, day 4, XTT
Description: Compound cytotoxicity and the corresponding CC50 values were determined using the same protocol as described in the antiviral assay except that uninfected cells were used. Cytotoxicity was assessed on day 4 in uninfected MT2 cells by using an XTT (2,3-bis[2-Methoxy-4-nitro-5-sulfophenyl]-2H-tetrazolium-5-carboxyanilide inner salt)-based colorimetric assay (Sigma-Aldrich, St Louis, Mo.).

[2] = tested on: recombinant NL4-3 virus (Renilla luciferase in nef); assay: HIV cell culture assay (antiviral activity, luciferase readout in MT-2 cells); assay type: cell-based; details: Renilla, NL43
In short: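 MT-2 cells were infected for 4-5 days with 293T-derived recombinant NL4-3 reporter virus in the presence of serially diluted compound. Antiviral activity was quantified as luciferase activity using a live-cell substrate. EC50 was derived from the median effect equation.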

In the case of `Cn1nc(NS(C)(=O)=O)c2c(Cl)ccc(-n3c([C@H](Cc4cc(F)cc(F)c4)NC(=O)Cn4nc(C(F)F)c5c4C(F)(F)[C@@H]4C[C@H]54)nc4cc(-c5ccn(CCOC(F)(F)F)n5)ccc4c3=O)c21` (atropisomer, axis not shown; (P)) [Example 54, N—((S)-1-((3P)-3-(4-chloro-1-methyl-3-(methylsulfonamido)-1H-indazol-7-yl)-4-oxo-7-(1-(2-(trifluoromethoxy)ethyl)-1H-pyrazol-3-yl)-3,4-dihydroquinazolin-2-yl)-2-(3,5-difluorophenyl)ethyl)-2-((3bS,4aR)-3-(difluoromethyl)-5,5-difluoro-3b,4,4a,5-tetrahydro-1H-cyclopropa[3,4]cyclopenta[1,2-c]pyrazol-1-yl)acetamide], the CC50 at 4 days [1] is reported as greater than 100 nM and the EC50 [2] is reported as 0.098 nM.

Work on `Cn1nc(NS(C)(=O)=O)c2c(Cl)ccc(-n3c([C@H](Cc4cc(F)cc(F)c4)NC(=O)Cn4nc(C(F)F)c5c4C(F)(F)[C@@H]4C[C@H]54)nc4cc(-c5ccnc(CF)n5)ccc4c3=O)c21` (atropisomer, axis not shown; (P)) [Example 55, N—((S)-1-((3P)-3-(4-chloro-1-methyl-3-(methylsulfonamido)-1H-indazol-7-yl)-7-(2-(fluoromethyl)pyrimidin-4-yl)-4-oxo-3,4-dihydroquinazolin-2-yl)-2-(3,5-difluorophenyl)ethyl)-2-((3bS,4aR)-3-(difluoromethyl)-5,5-difluoro-3b,4,4a,5-tetrahydro-1H-cyclopropa[3,4]cyclopenta[1,2-c]pyrazol-1-yl)acetamide] yielded a CC50 at 4 days [1] greater than 100 nM and an EC50 [2] of 0.056 nM.

Work on `Cn1nc(NS(C)(=O)=O)c2c(Cl)ccc(-n3c([C@H](Cc4cc(F)cc(F)c4)NC(=O)Cn4nc(C(F)F)c5c4C(F)(F)[C@@H]4C[C@H]54)nc4cc(-c5ccnc(C(F)F)n5)ccc4c3=O)c21` (atropisomer, axis not shown; (P)) [Example 56, N—((S)-1-((3P)-3-(4-chloro-1-methyl-3-(methylsulfonamido)-1H-indazol-7-yl)-7-(2-(difluoromethyl)pyrimidin-4-yl)-4-oxo-3,4-dihydroquinazolin-2-yl)-2-(3,5-difluorophenyl)ethyl)-2-((3bS,4aR)-3-(difluoromethyl)-5,5-difluoro-3b,4,4a,5-tetrahydro-1H-cyclopropa[3,4]cyclopenta[1,2-c]pyrazol-1-yl)acetamide] yielded a CC50 at 4 days [1] greater than 100 nM and an EC50 [2] of 0.017 nM.

`Cc1cc(-c2ccc3c(=O)n(-c4ccc(Cl)c5c(NS(C)(=O)=O)nn(C)c45)c([C@H](Cc4cc(F)cc(F)c4)NC(=O)Cn4nc(C(F)F)c5c4C(F)(F)[C@@H]4C[C@H]54)nc3c2)nn1CC(F)(F)C(F)F` (atropisomer, axis not shown; (P)) [Example 57, N—((S)-1-((3P)-3-(4-chloro-1-methyl-3-(methylsulfonamido)-1H-indazol-7-yl)-7-(5-methyl-1-(2,2,3,3-tetrafluoropropyl)-1H-pyrazol-3-yl)-4-oxo-3,4-dihydroquinazolin-2-yl)-2-(3,5-difluorophenyl)ethyl)-2-((3bS,4aR)-3-(difluoromethyl)-5,5-difluoro-3b,4,4a,5-tetrahydro-1H-cyclopropa[3,4]cyclopenta[1,2-c]pyrazol-1-yl)acetamide] gave a CC50 at 4 days [1] greater than 100 nM and an EC50 [2] of 0.13 nM.

In the case of `Cc1cc(-c2ccc3c(=O)n(-c4ccc(Cl)c5c(NS(C)(=O)=O)nn(C)c45)c([C@H](Cc4cc(F)cc(F)c4)NC(=O)Cn4nc(C(F)F)c5c4C(F)(F)[C@@H]4C[C@H]54)nc3c2)nn1CC(F)(F)C(F)(F)F` (atropisomer, axis not shown; (P)) [Example 60, N—((S)-1-((3P)-3-(4-chloro-1-methyl-3-(methylsulfonamido)-1H-indazol-7-yl)-7-(5-methyl-1-(2,2,3,3,3-pentafluoropropyl)-1H-pyrazol-3-yl)-4-oxo-3,4-dihydroquinazolin-2-yl)-2-(3,5-difluorophenyl)ethyl)-2-((3bS,4aR)-3-(difluoromethyl)-5,5-difluoro-3b,4,4a,5-tetrahydro-1H-cyclopropa[3,4]cyclopenta[1,2-c]pyrazol-1-yl)acetamide], the CC50 at 4 days [1] is reported as greater than 100 nM and the EC50 [2] is reported as 0.21 nM.
